Measured values published in publication PMC9656482, “In Vitro and In Vivo Biological Activity of Ruthenium 1,10-Phenanthroline-5,6-dione Arene Complexes” (International Journal of Molecular Sciences, 2022).

What was measured:
A2780 cells [1] = assay: Mitochondrial membrane potential (JC-1); assay type: cell-based, human; details: A2780, 48 h, IC50 of JHOR11, relative to vehicle control
Description: This dye accumulates in the mitochondria of cells, presenting red fluorescence, characteristic of the aggregated form (JC-1 aggregated), in healthy cells, and green fluorescence, characteristic of monomer form (JC-1 monomer), when the mitochondrial membrane is compromised.
The mitochondrial potential was quantified using the JC-1 mitochondrial membrane potential assay kit (Abnova, Taipé, Taiwan) according to manufacturer’s instructions and as previously described. Briefly, 2 × 10^5 A2780 cells were seeded on each well of a 6-well plate and incubated for 48 h with IC50 JHOR11, 0.1% (v/v) DMSO or 3.5 µM cisplatin. Cells with red (JC-1 aggregated) and green (JC-1 monomer) fluorescence were quantified with an Attune acoustic focusing flow cytometer and respective software (Thermo Fisher Scientific), and fluorescence ratios normalized to control samples incubated with DMSO.

A2780 cells [2] = assay: Senescence assay (beta-galactosidase fluorescence); assay type: cell-based, human; details: A2780, 48 h, IC50 of JHOR11, relative to DMSO
Description: The senescence of A2780 cells after 48 h incubation with IC50 of JHOR11 was also analyzed to add more insights into the mechanism of action of the complex. Premature cellular senescence is an irreversible state of cell cycle arrest that occurs in response to intrinsic and extrinsic insults to the cell that induce DNA damage, oxidative stress, or nutrient depletion. The percentage of senescent cells was measured using the senescence assay kit (Abcam) that allows the quantification of the senescence-associated expression of beta-galactosidase activity by flow cytometry. […] [36].
The cell senescence analysis was performed using the Senescence assay kit (beta galactosidade fluorescence, Abcam, Cambridge, UK) according to the manufacturer’s instruction with few modifications. Briefly, A2780 cells were seeded in 24 well-plates to a final cell density of 4 × 10^5 cells/well. After 24 h incubation, to assure cell adhesion to the wells, the medium was replaced by fresh media supplemented with 0.1% (v/v) DMSO, for vector control, 3.5 µM cisplatin, 0.1 µM Doxorubicin, or IC50 JHOR11. […] Pelleted cells were washed with wash buffer, resuspended in the same buffer and the percentage of fluorescent cells in each sample was immediately measured in an Attune focusing flow cytometer and respective software (Thermo Fisher Scientific).

A2780 cells [3] = assay: Production of reactive oxygen species (H2DCF-DA); assay type: cell-based, human; details: A2780, 48 h, IC50 of JHOR11
Description: Since the cytotoxicity of Ru(II) complexes is commonly accompanied by the induction of reactive oxygen species (ROS), the ROS concentration was quantified in A2780 cells exposed for 48 h to IC50 concentration of JHOR11, using DMSO 0.1% (v/v) as a vehicle control, and 3.5 µM cisplatin and 25 µM hydrogen peroxide (H2O2) as positive controls. The incubation with the dye 2′,7′-dichlorodihydrofluorescein diacetate (H2DCF-DA) that, in the presence of peroxides, emits green fluorescence after oxidation to 2′,7′-dichlorofluorescein (DCF), followed by fluorescence quantification by flow cytometry, allowed us to infer the induction of ROS.
The production of ROS was evaluated using the dye 2′,7′-dichlorodihydrofluorescein diacetate (H2DCF-DA, ThermoFisher Scientific) according to previously described procedures. […] The fluorescence was quantified in an Attune acoustic focusing cytometer and respective software (Thermo Fisher Scientific) and normalized to the fluorescence of vector control sample.

[4] = tested on: A2780 ovarian carcinoma cell line; assay: MTS antiproliferative assay, A2780; assay type: cell-based, human
Description: The cytotoxic potential of the complexes was evaluated by assessing their viability using the 3-(4,5-dimethylthiazol-2-yl)-5-(3-carboxymethoxyphenyl)-2-(4-sulfophenyl)-2H tetrazolium, inner salt (MTS) colorimetric assay in three tumor cell lines—ovarian carcinoma, A2780, colorectal carcinoma, HCT116, and colorectal carcinoma resistant to doxorubicin, HCT116-Dox and in normal human primary dermal fibroblasts (Figure 1 and Figure S7).
Normal dermal human fibroblasts, colorectal carcinoma cell line HCT116 and ovarian carcinoma cell line A2780 were acquired from ATCC (Manassas, VA, USA). […] Fibroblasts and HCT116 cells were cultured in Dulbecco’s modified Eagle medium (DMEM, Thermo Fisher Scientific) and A2780 cell line was cultured on Roswell Park Memorial institute 1640 (RPMI-1640, Thermo Fisher Scientific). Both media were supplemented with 10% (v/v) fetal bovine serum (FBS, Thermo Fisher Scientific) and a mixture of 100 U/mL penicillin and 100 mg/mL streptomycin. The supplemented media are referred to from this point on as DMEM or RPMI for simplicity. […] All experiments underwent at 37 °C, 5% (v/v) CO2 and 99% (v/v) humidity in the dark.
Cells were seeded in a 96-well plate in a density of 7500 cells/well, and after 24 h was submitted to a concentration range between 0.1–50 µM of complexes JHOR10 and JHOR11. DMSO with a 0.1% (v/v) concentration was used as vector control and cisplatin was used as positive control in all replicates. After 48 h incubation, cellular viability was inferred with the Cell Titer 96® Aqueous One solution cell proliferation assay (Promega, Madison, WI, USA) according to the manufacturer’s instructions and procedures previously described [18, 40]. The absorbance of the produced Formazan was quantified with a Tecan microplate reader, Infinite M200 (Tecan, Mannedorf, Switzerland) and the analysis of the dose–response curves to determine the relative IC50 was performed with GraphPad Prism 8.2.1 software (GraphPad Software, La Jolla, CA, USA).

[5] = tested on: BAX and BCL-2 protein expression in A2780 cells; details: A2780, 48 h, IC50 of JHOR11, normalized to DMSO control = 1
Description: The ratio between BAX and BCL-2 protein expression indicates the level of susceptibility of the cell to the intrinsic apoptotic pathway [26, 27, 28]. The BAX and BCL-2 protein expression was quantified by Western blot analysis to calculate the apoptotic index of cells after 48 h incubation with IC50 of JHOR11, using the quantification of β-actin as the internal control and 0.1% (v/v) DMSO as the vehicle control (Figure 4).
The apoptotic index was determined by quantification of BAX and BCL-2 protein expression by Western blot, as previously described [18]. Briefly, 4 × 10^6 cells were seeded on T-flasks with 25 cm^2 for 24 h and then the medium was replaced by a fresh medium supplemented with IC50 JHOR11, 0.1% (v/v) DMSO (vector control) or 0.1 µM doxorubicin (positive control). After 48 h incubation, cells were detached with a cell scraper and BAX, BCL-2 and β-actin proteins were quantified in a PVDF membrane [18]. The apoptotic ratio BAX/BCL-2 was calculated after normalization of the BAX and BCL-2 band intensity with respective β-actin band intensity and to the values of the DMSO-treated sample, measured using ImageJ2 software [41].

Cc1ccc(C(C)C)cc1.F[P-](F)(F)(F)(F)F.O=C1C(=O)c2cccnc2-c2ncccc21.[Cl][Ru+] [JHOR11]
JC-1 monomer/aggregate fluorescence ratio (A2780 cells [1]): decrease in the monomer/aggregate fluorescence ratio (but with no statistical significance)
percentage of senescent cells (A2780 cells [2]): increased percentage of senescent cells
increase in intracellular ROS relative to vector control (A2780 cells [3]): 1.72 ± 0.4 times
IC50 ([4]; 48 h incubation, MTS, read-out: Relative IC50, A2780): 1200 ± 100 nM
selective index in A2780 ([4]; relative to fibroblasts): 37.4
apoptotic index (BAX/BCL-2 ratio) [5]: lower than 1
